Earlier results on one substance are cited in patent publication US20260000626A1, “POLYMERIC NANOPARTICLES FOR LONG ACTING DELIVERY OF A PEPTIDE AND METHODS OF MAKING AND USING THEREOF” (Brown University, priority 2022, published 2026).

The target in series [1] is T1, GLP-1 receptor (Homo sapiens, UniProt P43220). The following applies: vs intact GLP-1.
The target in series [2] is T1, GLP-1 receptor. The following applies: negligible agonistic activity.

T1 sequence (P43220 24-463, species assumed): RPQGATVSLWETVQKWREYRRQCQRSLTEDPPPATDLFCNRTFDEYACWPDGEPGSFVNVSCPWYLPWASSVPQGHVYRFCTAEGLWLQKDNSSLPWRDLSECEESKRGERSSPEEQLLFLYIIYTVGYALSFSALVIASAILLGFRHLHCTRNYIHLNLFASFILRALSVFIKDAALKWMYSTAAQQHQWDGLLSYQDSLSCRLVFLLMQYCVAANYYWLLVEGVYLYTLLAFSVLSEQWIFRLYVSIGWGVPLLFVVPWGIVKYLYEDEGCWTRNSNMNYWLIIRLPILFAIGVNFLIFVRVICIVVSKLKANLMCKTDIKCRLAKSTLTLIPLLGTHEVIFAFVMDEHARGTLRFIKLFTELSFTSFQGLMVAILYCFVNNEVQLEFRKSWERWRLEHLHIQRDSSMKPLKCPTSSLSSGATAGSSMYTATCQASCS

Take GLP-1(9-36)-NH2: on GLP-1 receptor [1], the “lower binding affinity compared to the intact peptide” value was 100 fold. Besides, the “decrease in agonistic activity” value at GLP-1 receptor [2] is given as greater than 10000 fold.
